Assay results published in patent publication US20160257988A1, “Indicator Molecules For Use In Detecting Enzyme Cleavage Activity” (Mologic Limited, priority 2013, published 2016).

Molecular target: T1, Matrix-Metalloproteinase 9 (MMP9) (Homo sapiens, UniProt P14780)
T1 construct: 5 μl sample (active MMP9 at 2 μg/ml)
Test: Fluorogenic peptide cleavage assay with active MMP9 (kinetic fluorescence scan)
Type: biochemical
Conditions: active MMP9 at 2 μg/ml, 5 μl of 0.2 mM peptide per well; excitation 328 nm, emission 400 nm; kinetic scan 30 min; FIG. 3
Description: 2 flurogenic peptides with 1 (PCL0174 A4) or 2 (PCL0174 B1) cleavable sequences respectively were investigated with sensitivity towards Matrix-Metalloproteinase 9 (MMP9).
96-well assay plate, black polystyrene, Costar®, Corning Inc. (Cat. #3925, lot #25011023)
MMP buffer, Aq. Solution of 50 mM Tris, 100 mM sodium chloride, 10 mM Calcium Chloride, 50 μM […] zinc chloride, 0.025% Brij 35, 0.05% sodium azide at pH 8.0.
Peptides PCL0174 A4 and PCL0174 B1 at a molar concentration of 8 mM
Testing Method • Peptides at a stock of 8 mM were diluted to 0.2 mM in MMP buffer • 2 μl+78 μl MMP buffer • 5 μl sample (active MMP9 at 2 μg/ml)+190 μl MMP buffer added to well • 5 μl of 0.2 mM peptide added per well • Read on a Fluorometer using the following settings: • Excitation wavelength: 328 nm, bandwidth 5 nm • Emission wavelength: 400 nm, bandwidth 5 nm • Kinetic scan: 30 min, interval 1 min

T1 sequence (P14780 107-707 limits assumed, species assumed): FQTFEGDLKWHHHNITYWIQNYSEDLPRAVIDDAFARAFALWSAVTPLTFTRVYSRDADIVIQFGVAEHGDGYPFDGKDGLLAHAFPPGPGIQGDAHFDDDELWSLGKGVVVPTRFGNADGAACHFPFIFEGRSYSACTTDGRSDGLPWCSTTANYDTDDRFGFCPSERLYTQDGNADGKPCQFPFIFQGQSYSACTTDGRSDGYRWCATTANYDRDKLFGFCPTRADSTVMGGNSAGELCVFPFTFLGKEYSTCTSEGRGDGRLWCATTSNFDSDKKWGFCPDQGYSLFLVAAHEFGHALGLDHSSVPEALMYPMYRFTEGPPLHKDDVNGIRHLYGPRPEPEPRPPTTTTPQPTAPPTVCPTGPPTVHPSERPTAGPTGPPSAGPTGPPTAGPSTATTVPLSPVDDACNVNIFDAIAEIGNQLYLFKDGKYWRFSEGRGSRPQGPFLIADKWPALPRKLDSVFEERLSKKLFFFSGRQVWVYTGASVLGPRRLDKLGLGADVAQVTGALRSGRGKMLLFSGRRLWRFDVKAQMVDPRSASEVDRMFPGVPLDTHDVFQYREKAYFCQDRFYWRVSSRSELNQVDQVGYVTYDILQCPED

Substance	running time at which the same result (signal) is achieved [min]
Lys(Mc Coumarin)-[GPQGIFGQ])-[GPQGIFGQ]-Lys(Dnp)G [2 CS]	8
Lys(Mc Coumarin)-[GPQGIFGQ]-Lys(Dnp)G [1 CS]	30
